Measurements as given in US9663515B2, “Dihydropyrrolopyridine inhibitors of ROR-gamma” (Vitae Pharmaceuticals, Inc., priority 2014, dated 2017).

Key:
[1] = target: hERG potassium ion channel (Homo sapiens (Human), UniProt Q12809); experiment: hERG Assay (Assay 4); format: cell-based; settings: HEK293 cells stably transfected with hERG cDNA, pH 7.4, compound at 3 μM, patch clamp, HEK 293 cells transfected with hERG
Description: Compounds of the invention were tested in vitro against the hERG (human ether-à-go-go-related gene) potassium ion channel (a surrogate for IKr, the rapidly activating delayed rectifier cardiac potassium ion channel).
The buffer was HEPES-buffered physiological saline (HB-PS) solution composed of: 137 mM NaCl, 4.0 mM KCl, 1.8 mM CaCl2, 1 mM MgCl2, 10 mM HEPES, 10 mM glucose, pH adjusted to 7.4 with NaOH, and 0.3% DMSO. Chemicals used in solution preparation were purchased from Sigma-Aldrich (St. Louis, Mo.), unless otherwise noted, and were of ACS reagent grade purity or higher.
HEK (human embryonic kidney) 293 cells were stably transfected with hERG cDNA.
For the patch clamp experiment, onset and steady state inhibition of hERG potassium current was measured using a pulse pattern with fixed amplitudes (depolarization: +20 mV for 2 s; repolarization: −50 mV for 2 s) repeated at 10 s intervals from a holding potential of −80 mV. Peak tail current was measured during the 2 s step to −50 mV. A steady state was maintained for at least 30 seconds before applying compound or positive control (cisapride). Peak tail currents were measured until a new steady state was achieved.
Data acquisition and analyses were performed using the suite of pCLAMP® (ver. 8.2) programs (MDS Analytical Technologies, Sunnyvale, Calif.). Steady state was defined by the limiting constant rate of change with time (linear time dependence). The steady state before and after each compound application was used to calculate the percentage of current inhibited at each concentration.
Concentration-response data were fit to an equation of the following form: % Inhibition={1−1/[1+([Test]/IC50)N]}*100
where [Test] was the compound concentration, IC50 was the compound concentration at half-maximal inhibition, N was the Hill coefficient, and % Inhibition was the percentage of current inhibited at each compound concentration. Nonlinear least squares fits were solved with the Solver add-in for Excel 2003 (Microsoft, WA) and the IC50 was calculated.

[2] = target: full-length RORγt in Jurkat cells (Homo sapiens (Human), UniProt P51449); experiment: RORγt 5×RORE Assay in Jurkat Cells (Assay 2); format: cell-based; settings: 5×RORE Nanoluc luciferase reporter, read-out: RORγt5X IC50 Range (nM) (Assay 2)
Description: [formula] RORγt 5×RORE Assay in Jurkat Cells (Assay 2)
Compounds of the present invention were tested for RORγ inverse agonist activity in a cell-based, transcriptional activity assay. […] (Promega, Cat. # N1021) using KpnI and HindIII restriction sites. […] Tested compounds were added to the cells in the same media (final concentration of DMSO was 0.1% (v/v)), and the plates were incubated at 37° C./5% CO2 for 16-18 hr. Luciferase activity in the conditioned supernatants was determined with NanoGlo® assay reagents (Promega, Cat.# N1130).

[3] = target: recombinant RORγ Ligand Binding Domain (LBD) protein (Homo sapiens (Human), UniProt P51449); experiment: Radio-Ligand RORγ Binding Assay (Assay 1); settings: competition with 25-hydroxy [26,27-3H]-cholesterol, SPA; read-out: RORγ Binding Ki Range (nM) (Assay 1)
Description: Radio-Ligand RORγ Binding Assay (Assay 1)
Compounds of the present invention were tested for ability to bind to RORγ in a cell-free competition assay with commercially available radio-ligand (RL), 25-hydroxy [26,27-^3H]-cholesterol (PerkinElmer, Cat. # NET674250UC), for a ligand binding site on a recombinant RORγ Ligand Binding Domain (LBD) protein expressed as a 6×His-Glutathione-S-Transferase (GST) fusion. […] The plate was shaken at 700 rpm for 20 min and incubated for 10 min at rt, after which 40 μL of poly-Lys YSi SPA beads (PerkinElmer, Cat. # RPNQ0010) were added to achieve 50 μg of the beads per well. The plate was incubated on an orbital shaker for 20 min and then for 10 min without agitation at rt. SPA signal for tritium beta radiation was registered on PerkinElmer Microbeta plate reader. […] The percent inhibition vs. concentration data were fit into a four-parameter model, and IC50 values were calculated from the fit as the concentrations corresponding to the inflection points on the dose-response curves.

[4] = system: IL-17A production in human whole blood; experiment: Human Whole Blood Assay (Assay 3); format: cell-based; settings: IL-17A secretion, CytoStim activation, 48 h, 50% blood/media
Description: Human Whole Blood Assay (Assay 3)
Compounds of the invention were tested in the human whole blood assay to measure their effects on IL-17A production as determined by cytokine secretion into 50% blood/media supernatant. Mixtures of sodium heparinized whole blood (isolated from healthy human donors) and the T cell activator CytoStim, in the presence or absence of compound, were plated in sterilized, tissue culture-treated 24-well plates. […]
Mixtures were incubated at 37° C./5% CO2 for 48 h, after which, 200 μL of clean supernatant (i.e., no red blood cells) from each well was transferred to a well in a 96-well plate. IL-17A cytokine expression was determined using 25 μL of the transferred supernatant diluted with 25 μL of Diluent 43 from the Human IL-17A V-PLEX™ kit (cat. # K151RFD-4, Meso Scale Discovery, Rockville, Md.). […] The IL-17A V-PLEX™ plates were read using the Meso Scale Discovery Imager (Model 1200). The levels of IL-17A were extrapolated from a standard curve using a four-parameter non-linear fitting model and expressed as pg/mL. […]

Sequence of full-length RORγt in Jurkat cells (P51449 other isoform, or with tags, fused parts or gaps): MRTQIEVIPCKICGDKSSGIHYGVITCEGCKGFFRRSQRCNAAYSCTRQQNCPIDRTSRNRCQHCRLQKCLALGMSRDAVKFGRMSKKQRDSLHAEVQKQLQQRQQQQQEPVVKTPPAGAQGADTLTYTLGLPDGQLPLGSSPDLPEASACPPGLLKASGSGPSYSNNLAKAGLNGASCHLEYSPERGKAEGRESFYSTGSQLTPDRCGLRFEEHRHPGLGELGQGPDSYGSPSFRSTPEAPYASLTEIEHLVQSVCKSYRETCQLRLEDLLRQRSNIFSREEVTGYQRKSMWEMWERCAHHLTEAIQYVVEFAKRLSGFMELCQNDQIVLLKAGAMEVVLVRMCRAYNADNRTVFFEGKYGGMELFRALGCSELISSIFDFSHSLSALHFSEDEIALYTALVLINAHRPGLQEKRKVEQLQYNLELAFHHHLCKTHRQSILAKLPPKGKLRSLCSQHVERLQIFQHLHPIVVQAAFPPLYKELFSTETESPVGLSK
Sequence of recombinant RORγ Ligand Binding Domain (LBD) protein (P51449 269-508): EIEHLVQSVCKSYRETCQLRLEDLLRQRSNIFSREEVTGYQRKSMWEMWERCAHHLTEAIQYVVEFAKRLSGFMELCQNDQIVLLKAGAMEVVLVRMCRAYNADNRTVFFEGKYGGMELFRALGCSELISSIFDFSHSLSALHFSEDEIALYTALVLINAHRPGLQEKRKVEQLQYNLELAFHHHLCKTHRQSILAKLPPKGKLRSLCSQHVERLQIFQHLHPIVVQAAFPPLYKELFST
Sequence of hERG potassium ion channel (Q12809 whole entry): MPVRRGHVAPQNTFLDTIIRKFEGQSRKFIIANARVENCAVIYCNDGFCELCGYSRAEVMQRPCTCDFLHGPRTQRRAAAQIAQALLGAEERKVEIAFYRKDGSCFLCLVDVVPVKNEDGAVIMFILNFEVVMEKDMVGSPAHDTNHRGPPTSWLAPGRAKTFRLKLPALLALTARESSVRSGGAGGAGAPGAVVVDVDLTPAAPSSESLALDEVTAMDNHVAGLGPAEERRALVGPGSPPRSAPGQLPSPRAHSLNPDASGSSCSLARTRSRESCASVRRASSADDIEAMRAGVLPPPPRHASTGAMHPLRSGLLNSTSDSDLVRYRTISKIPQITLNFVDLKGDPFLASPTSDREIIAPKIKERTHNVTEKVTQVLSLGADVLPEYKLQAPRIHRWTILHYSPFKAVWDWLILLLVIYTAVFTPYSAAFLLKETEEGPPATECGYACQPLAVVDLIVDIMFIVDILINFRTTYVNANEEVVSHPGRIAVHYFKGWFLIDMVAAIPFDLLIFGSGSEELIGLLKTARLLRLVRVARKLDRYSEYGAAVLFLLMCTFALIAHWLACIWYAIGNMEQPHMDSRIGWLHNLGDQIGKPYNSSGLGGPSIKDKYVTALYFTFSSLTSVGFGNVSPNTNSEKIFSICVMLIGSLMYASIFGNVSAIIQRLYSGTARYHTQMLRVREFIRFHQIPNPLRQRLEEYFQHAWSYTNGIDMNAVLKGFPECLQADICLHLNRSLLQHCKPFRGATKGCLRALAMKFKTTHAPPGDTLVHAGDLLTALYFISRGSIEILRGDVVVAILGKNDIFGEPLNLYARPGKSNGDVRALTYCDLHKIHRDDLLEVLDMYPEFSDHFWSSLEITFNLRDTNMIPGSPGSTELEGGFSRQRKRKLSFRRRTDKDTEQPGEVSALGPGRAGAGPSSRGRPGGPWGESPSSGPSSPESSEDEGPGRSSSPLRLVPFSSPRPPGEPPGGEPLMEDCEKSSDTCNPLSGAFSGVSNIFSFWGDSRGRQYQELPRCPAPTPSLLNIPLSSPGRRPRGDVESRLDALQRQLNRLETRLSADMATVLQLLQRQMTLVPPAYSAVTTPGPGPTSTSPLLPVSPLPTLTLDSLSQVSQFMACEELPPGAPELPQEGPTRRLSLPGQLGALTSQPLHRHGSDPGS

Row | SMILES | inhibition at 3 µM [1] [%] | IC50 [2] [nM] | Ki [3] [nM] | IC50 [4] [nM]
1 | CCS(=O)(=O)c1ccc(CNC(=O)c2cnc3c(c2)CN(C[C@H]2CC[C@H](C(F)(F)F)CC2)[C@H]3C(C)C)cc1 | 57 | – | – | –
2 | CCS(=O)(=O)c1ccc(CNC(=O)c2cnc3c(c2)CN(C[C@H]2CC[C@H](C(F)(F)F)CC2)[C@H]3C(C)C)nc1 | 45.4 | – | – | –
3 | CC[C@H]1c2ncc(C(=O)N[C@@H](COC)c3ccc(S(=O)(=O)CC)cc3)cc2CN1C[C@H]1CC[C@H](C(F)(F)F)OC1 (single isomer, unassigned) [Compound 3] | 24.3 | < 100 | < 100 | –
4 | CC[C@H]1c2ncc(C(=O)N[C@@H](COC)c3ccc(S(=O)(=O)CC)cc3)cc2CN1C[C@@H]1CC[C@@H](C(F)(F)F)OC1 (single isomer, unassigned) [Compound 4] | – | < 100 | < 100 | –
5 | CC[C@H]1c2ncc(C(=O)N[C@@H](COC)c3ccc(S(=O)(=O)CC)cc3)cc2CN1C[C@@H]1CC[C@H](C(F)(F)F)OC1 (single isomer, unassigned) [Compound 5] | – | > 1000 | < 100 | –
6 | CC[C@H]1c2ncc(C(=O)N[C@@H](COC)c3ccc(S(=O)(=O)CC)cc3)cc2CN1C[C@H]1CC[C@@H](C(F)(F)F)OC1 (single isomer, unassigned) [Compound 6] | – | > 1000 | < 100 | –
7 | CC[C@H]1c2ncc(C(=O)N[C@@H](COC)c3ccc(S(=O)(=O)CC)cc3)cc2CN1C[C@H]1CC[C@H](C(F)(F)F)CC1 [Compound 1, (S)-7-ethyl-N—((R)-1-(4-(ethylsulfonyl)phenyl)-2-methoxyethyl)-6-((trans-4-(trifluoromethyl)cyclohexyl)methyl)-6,7-dihydro-5H-pyrrolo[3,4-b]pyridine-3-carboxamide] | 24.3 | < 100 | < 100 | < 100
8 | CC[C@H]1c2ncc(C(=O)N[C@@H](COC(N)=O)c3ccc(S(=O)(=O)CC)cc3)cc2CN1C[C@H]1CC[C@H](C(F)(F)F)CC1 [Compound 2, (R)-2-((S)-7-ethyl-6-((trans-4-(trifluoromethyl)cyclohexyl)methyl)-6,7-dihydro-5H-pyrrolo[3,4-b]pyridine-3-carboxamido)-2-(4-(ethylsulfonyl)phenyl)ethyl carbamate] | 38.8 | […] | […] | […]
9 | CCS(=O)(=O)c1ccc([C@H](COC)NC(=O)c2cnc3c(c2)CN(C[C@H]2CC[C@@H](C(F)(F)F)CC2)[C@H]3C(C)C)cc1 [Compound 8] | – | > 1000 | < 100 | –
10 | CCS(=O)(=O)c1ccc([C@@H](COC(N)=O)NC(=O)c2cnc3c(c2)CN(C[C@H]2CC[C@@H](C(F)(F)F)CC2)[C@H]3C(C)C)nc1 [Compound 9] | – | > 1000 | < 100 | –
11 | CCS(=O)(=O)c1ccc([C@H](COC(N)=O)NC(=O)c2cnc3c(c2)CN(C[C@H]2CC[C@H](C(F)(F)F)CC2)[C@H]3C(C)C)nc1 [Compound 10] | – | < 100 | < 100 | –
12 | CCS(=O)(=O)c1ccc([C@H](COC(N)=O)NC(=O)c2cnc3c(c2)CN(C[C@H]2CC[C@@H](C(F)(F)F)CC2)[C@H]3C(C)C)cc1 [Compound 11] | – | > 1000 | < 100 | –
13 | CCS(=O)(=O)c1ccc([C@@H](COC(N)=O)NC(=O)c2cnc3c(c2)CN(C[C@H]2CC[C@H](C(F)(F)F)CC2)[C@H]3C(C)C)cc1 [Compound 12] | 38.8 | < 100 | < 100 | –
15 | CCS(=O)(=O)c1ccc([C@H](COCC(=O)O)NC(=O)c2cnc3c(c2)CN(C[C@H]2CC[C@H](C(F)(F)F)CC2)[C@H]3C(C)C)cc1 [Compound 14] | – | 100 to 1000 | < 100 | –
16 | CCS(=O)(=O)c1ccc([C@H](COC)NC(=O)c2cnc3c(c2)CN(C[C@H]2CC[C@H](C(F)(F)F)CC2)[C@H]3C(C)C)cc1 [Compound 15] | 50 | < 100 | < 100 | –
